Measured values reported in patent US20110105517A1, “THERAPEUTIC AGENT FOR AMYOTROPHIC LATERAL SCLEROSIS” (priority 2008, published 2011).
Structures can show the parent of a compound that is named as a salt.

Assays:
HeLa cells = test: Cell viability assay 1: oxidative stress (menadione)-induced cell death in non-neuronal cells; assay type: cell-based; settings: pre-treatment 2.5, 5, 10 μM for 24 h; menadione 20-80 μM for 4 h; AlamarBlue; versus DMSO alone; FIG. 1
Procedure: HeLa cells (1.0×10^6) were plated in 75 cm^2 flask and were cultured in the presence of 5% CO2 at 37° C. for 16 hours. Bromocriptine mesylate in DMSO was then added to the medium at the final concentrations of 2.5, 5 and 10 μM. The amount of DMSO used in each samples were adjusted to that used in the 10 μM sample. Cells were cultured for additional 24 hours (bromocriptine mesylate treatment). As a negative control, DMSO without bromocriptine mesylate was added. Menadione was then added to the HeLa cells treated with bromocriptine mesylate at the final concentrations of 0, 20, 40, 60 and 80 μM and the cells were further incubated in 5% CO2, at 37° C. (oxidative stress treatment). As a negative control, 0.1% Triton X-100/DMEM/10% FBS was added in place of menadione. After 4 hours of oxidative stress treatment, the medium was replaced with that containing AlamarBlue, and the cell culture was resumed in 5% CO2, at 37° C. After 16 hours of incubation, the number of viable cells was counted by measuring the fluorescence at excitation wave length 530 nm/emission wave length 580 nm, using the fluorescence plate reader.
The X-axis of the graph represents menadione concentration (μM), while the Y-axis of the graph represents cell viability (%). The Y-axis values under each condition are shown as viability relative to the no menadione treatment (0 μM) control which is set at 100%.

ALS-SOD1^H46R mouse [1] = test: Efficacy test in vivo: survival after the onset of the disease; settings: i.p. once a day from onset, non-administered group 27.8±2.1 day, FIG. 4
Procedure: (§1) In this test, ALS-SOD1^H46R mouse carrying the mutation in the SOD1 gene (SOD1^H46R) (ALS1) was used. The mice were housed at 23° C. with a 12 hr light/dark cycle. Bromocriptine mesylate was suspended in 0.5% carboxymethylcellulose sodium (CMC-Na). The administration of bromocriptine mesylate was initiated when the neurological symptoms was first observed (first manifestation of the illness) in the ALS-SOD1^H46R mouse in the balance beam test. The dosage of bromocriptine mesylate was 10 mg or 1 mg per 1 kg of body weight in each of the animals, and administered by intraperitoneal injection once a day until the animals died (group treated with bromocriptine mesylate). As the negative control, the mice were administered with 0.5% CMC-Na (5 ml/kg) (group not treated with bromocriptine mesylate). Balance beam test (stainless beam: 50 cm long, 0.9 cm wide) was employed to evaluate the appearance of neurological symptoms. The evaluation of symptoms was carried out in 5 grades. Grade 3 was considered to be the first manifestation of the symptoms. The evaluation criteria used are shown below.

[2] = system: differentiated SH-SY5Y cells; test: Cell viability assay 2: oxidative stress (menadione)-induced cell death in differentiated neuronal cells; assay type: cell-based, human; settings: retinoic acid-differentiated cells; pre-treatment 5, 10, 20, 40 μM for 24 h; menadione 20-50 μM for 4 h; AlamarBlue; versus DMSO alone; FIG. 2
Procedure: SH-SY5Y cells were suspended in DMEM supplemented with 10% FBS, were plated at 1.0×10^4 cells/well in 96 well microtiter plate, and were incubated in 5% CO2 at 37° C. for 24 hours. The medium was then replaced with DMEM supplemented with 10% FBS and 10 μM all-trans retinoic acid (RA) (DMEM/FBS/RA), and after 5 days, bromocriptine mesylate in DMSO was added to the medium at the final concentrations of 5, 10, 20 and 40 μM. The amount of DMSO used in each samples were adjusted to that used in the 40 μM sample. The cells were cultured for additional 24 hours (bromocriptine mesylate treatment). As a negative control, DMSO without bromocriptine mesylate was added. Menadione was then added to the SH-SY5Y cells treated either with DMSO alone or bromocriptine mesylate at the final concentrations of 0, 20, 30, 40, and 50 μM, and cultured in 5% CO2 at 37° C. (oxidative stress treatment). As a negative control, 0.1% Triton X-100/DMEM/10% FBS was added. After 4 hours of oxidative stress treatment, the medium was replaced with that containing AlamarBlue, and the cell culture was resumed in 5% CO2, at 37° C. After 16 hours of incubation, the number of viable cells was counted by measuring the fluorescence at excitation wave length 530 nm/emission wave length 580 nm, using the fluorescence plate reader. […]

ALS-SOD1^H46R mouse [3] = test: Efficacy test in vivo: motor function in vertical climb test; settings: 10 mg/kg i.p. once a day from onset of symptoms; n=5; non-administered group deteriorated significantly; FIG. 3
Procedure: as §1
The motor functions of mice in bromocriptine mesylate administered group and non-administered group were evaluated by vertical climb test (stainless bar: 50 cm long, 0.9 cm wide). […] The best score among the 5 test results was recorded as the motor function value. […]

For `CC(C)C[C@H]1C(=O)N2CCC[C@H]2[C@]2(O)O[C@](NC(=O)[C@@H]3C=C4c5cccc6[nH]c(Br)c(c56)C[C@H]4N(C)C3)(C(C)C)C(=O)N12` [bromocriptine mesylate], the “viabilities of HeLa cells exposed to oxidative stress by menadione” value (HeLa cells) was “increased depending on the concentration of bromocriptine mesylate”, the “overall survival after the onset of the disease” value (ALS-SOD1^H46R mouse [1]; 1 mg/kg, n=4) was 35.3 ± 6.0 days and the “overall survival after the onset of the disease” value (ALS-SOD1^H46R mouse [1]; 10 mg/kg, n=5) was 38.0 ± 2.9 days. For the same compound, the “viabilities of SH-SY5Y cells exposed to oxidative stress by menadione” value [2] was “increased depending on the concentration of bromocriptine mesylate” and the “motor function (vertical climb test) at 21 weeks of age” value (ALS-SOD1^H46R mouse [3]) was “largely unchanged”.
